Data set [1] can be described thus: r1 and r2 relaxivities (Brüker mq60 relaxometer). The data set is classed as physicochemical. The following applies: in human serum at 60 MHz and 37° C. An excerpt: General method for measurement of r1 and r2 relaxivities. […] […] Linear fits (R^2>0.99 in all cases) of 1/T1 or 1/T2 as a function of Mn concentration gave r1 or r2 values respectively.
Data set [2] is described as follows: Mn-54 biodistribution study in rats. Type of data set: in vivo, Sprague-Dawley rats. The following applies: rat, 7 d post injection; for % ID ± standard deviation, Brain: 0.62 mmol Mn/kg with ~30 μCi 54Mn labeled chelate, n = 4. The protocol: In vivo stability of the different isomer pools was assessed via a ^54Mn radioactive biodistribution as Mn released in vivo is known to be retained in brain, bone and liver. The amount of Mn released in vivo was assessed for Mn Chelate-5 synthesized without stereochemical control, a 1:1 mix of (R,R)-Mn Chelate-5 and (S,S)-Mn Chelate 5 isomers, and (R,S)-Mn Chelate-5 isomer pool B using ^54Mn labeled material added to non-radiolabeled material. […] Rats were dosed with 0.62 mmol Mn Chelate-5/kg containing ˜30 μCi ^54Mn Chelate-5. The animals were sacrificed at 7 d post injection, organs of interest were collected, and the ^54Mn remaining in the organs was measured using a gamma counter. FIG. 4 is a plot showing % ID (injected dose)/organ 7 d post injection of a 0.62 mmol Mn Chelate-5/kg dose containing ˜[…] ^54Mn Chelate-5. Bars containing hashed lines represent % ID/organ at or below the limit of detection for the study. The results of statistical comparison of the % ID for each organ are summarized as p-values using either a one-way ANOVA Games-Howell comparison or a 2-way t-test as appropriate are shown for each organ.
Method for preparation of Mn-54 labeled chelate for biodistribution studies. To a 3 mL glass vial fitted with a magnetic stir bar was added the manganese containing chelate (1 mg) and 1.0 M ammonium formate, pH=4 (0.5 mL). ^54MnCl2 in 1.0 M HCl (˜500 μCi) was then added and the resulting solution was heated at 40° C. for 16 h. The resulting solution was purified via preparative HPLC to remove unchelated Mn. The radioactive fraction was collected and evaporated to dryness in vacuo. The radioactive residue was taken up in water containing non-radioactive Mn chelate (0.310 M) such that ˜30 μCi of radioactivity was formulated in a dose of 0.620 mmol Mn/kg with an injection volume of 2 mL/kg.
General method for Mn-54 biodistribution studies. […] 7 days post injection, the animals were sacrificed by CO2 immersion and organs and tissues of interest were removed and assayed for radioactivity using a Wizard 2480 gamma counter (Table 2).

A short description of data set [3]: Dissociation of manganese from the chelate in human serum (SEC with ICP-MS). Type of data set: in vitro ADME. The following applies: for Percent dechelation in human serum: 37° C., protein bound manganese. How it is done: (§1) Stability of Mn Chelate-5 stereoisomers in human serum was assessed in vitro by monitoring transfer of Mn from the chelate to blood proteins by a method employing size exclusion chromatography combined with online detection of manganese containing species by ICP-MS.
The following method was used for measurement of dissociation of manganese from the manganese chelate in human serum.
To human serum obtained from clotted blood (Sigma-Aldrich, 1900 μL) was added an aqueous solution of the manganese chelate (2 mM, 100 μL). The mixture was incubated at 37° C. At specific time points aliquots of 200 μL of test sample were mixed with saline (400 μL) and analysed by size exclusion chromatography (metal-free HPLC equipped with a column with separation range 5000-500000 Dalton) combined with online detection of manganese containing species by ICP-SF-MS. Percent dechelation was measured as area percent of the high molecular weight (protein) fraction. At regular intervals EDTA solution was run through the system to ensure low levels of background metal ions. Human serum was incubated with Mn(II)acetate and injected to identify the position of Mn-binding components in the high molecular weight region of the chromatogram.
Four different stereoisomers of Mn Chelate-5 (RR, SS, SR and RS) were analysed in this assay.

A short description of data set [4]: Trans-metalation with Zn (HPLC, % Mn chelate remaining). Type of data set: physicochemical. The following applies: 2 mM chelate, 200 mM ZnCl2 in 15 mM ammonium formate, pH=4, 40° C. The protocol: as §1
Method for assessing trans-metalation with Zn. Mn chelates were dissolved in aqueous solutions containing 200 mM ZnCl2 and 15 mM ammonium formate at either pH=4 to give a Mn chelate concentration of approx. 2 mM. The resulting solutions were incubated at 40° C. with mixing and aliquots were periodically analyzed by HPLC. The percent Mn containing chelate remaining in the solution was measured by integration at 265 nm.

Turning to `CN1CCN2Cc3cccc(n3)CN(CC1)C(CCC(=O)NC[C@H](O)[C@@H](O)[C@H](O)[C@H](O)CO)C(=O)[O][Mn][O]C(=O)C2CCC(=O)NC[C@H](O)[C@@H](O)[C@H](O)[C@H](O)CO` (stereo partly shown) [Mn Chelate-5], the r1 relaxivity in data set [1] stood at 6.0 mM⁻¹ s⁻¹. Further, the “% ID ± standard deviation, Brain” value in data set [2] was 0.005 ± 0.0004% ID.

Take `CN1CCN2Cc3cccc(n3)CN(CC1)[C@@H](CCC(=O)NC[C@H](O)[C@@H](O)[C@H](O)[C@H](O)CO)C(=O)[O][Mn][O]C(=O)[C@@H]2CCC(=O)NC[C@H](O)[C@@H](O)[C@H](O)[C@H](O)CO` [(S,S)-Mn Chelate-5]: the “Percent dechelation in human serum” value in data set [3] (incubation time 3 h) is 0.3%; in data set [3] (incubation time 24 h), 1.6%; in data set [3] (incubation time 49 h), 2.4%.

`CN1CCN2Cc3cccc(n3)CN(CC1)[C@@H](CCC(=O)NC[C@H](O)[C@@H](O)[C@H](O)[C@H](O)CO)C(=O)[O][Mn][O]C(=O)[C@H]2CCC(=O)NC[C@H](O)[C@@H](O)[C@H](O)[C@H](O)CO` [(R,S)-Mn Chelate-5] had a r1 relaxivity in data set [1] of 6.0 mM⁻¹ s⁻¹. In addition, the “Mn remaining in vivo in brain and bone vs 1:1 (S,S)/(R,R) mixture or Mn Chelate-5 without stereochemical control” value in data set [2] is “significantly less Mn remaining in vivo”. Further, the “% ID ± standard deviation, Brain” value in data set [2] worked out at 0.002 ± 0.0004% ID. The “Rate of transmetallation with Zn (among Mn Chelate-5 stereoisomers)” value in data set [4] was “significantly slower rate of transmetallation”. Also, in data set [3] (2 days total incubation at 37 °C), the “Stability in human serum (percent dechelation curves, comparison of isomers)” value is on record as “most stable”. Further, the “Percent dechelation in human serum” value worked out at 0.04% in data set [3] (incubation time 3 h), 0.11% in data set [3] (incubation time 24 h) and 0.16% in data set [3] (incubation time 49 h).

Turning to `CN1CCN2Cc3cccc(n3)CN(CC1)[C@H](CCC(=O)NC[C@H](O)[C@@H](O)[C@H](O)[C@H](O)CO)C(=O)[O][Mn][O]C(=O)[C@H]2CCC(=O)NC[C@H](O)[C@@H](O)[C@H](O)[C@H](O)CO` [(R,R)-Mn Chelate-5], the entries for the “Percent dechelation in human serum” value in data set [3] (incubation time 3 h), in data set [3] (incubation time 24 h) and in data set [3] (incubation time 49 h) were 0.6%, 2.7% and 3.6%, respectively.

The record behind these values is patent US20220315616A1, “MANGANESE CHELATE ISOMERS” (GE Healthcare AS, priority 2019, published 2022).
